{"source": "patent US11007183B2", "about": "“Cancer treatments using combinations of PI3K/Akt pathway and ERK inhibitors” (BIOMED VALLEY DISCOVERIES, INC., priority 2013, dated 2021)", "key": {"[1]": {"system": "HCT116 PIK3CA (+/−) cells", "assay": "Combination proliferation assay (Loewe/Bliss)", "format": "cell-based, human", "settings": "2.5% serum", "method": "Test compounds were incubated with the cells for 72 h at 37° C., 5% CO2 in a humidified atmosphere. CellTiter-Glo® reagent (Promega, Madison, Wis.) was added according to manufacturer's instructions and luminescence detected using the BMG FLUOstar plate reader (BMG Labtech, Ortenberg, Germany). The average media only background value was deducted and the data analysed. For the 10×8 combination assays the combination interactions across the dose matrix were determined by the Loewe Additivity and Bliss independence models using ChaliceTM Combination Analysis Software (Horizon Discovery Group, Cambridge, Mass.) as outlined in the user manual (available at chalice.horizondiscovery.com/chalice-portal/documentation/analyzer/home.jsp). Synergy is determined by comparing the experimentally observed level of inhibition at each combination point with the value expected for additivity, which is derived from the single-agent responses along the edges of the matrix. Potential synergistic interactions were identified by displaying the calculated excess inhibition over that predicted as being additive across the dose matrix as a heat map, and by reporting a quantitative 'Synergy Score' based on the Loewe model. The single agent data derived from the combination assay plates were presented as dose-response curves generated in GraphPad Prism (GraphPad Software, La Jolla, Calif.) (plotted using percentage viability relative to DMSO only treated controls). […] (Cbliss is the fractional inhibition that would be expected if the combination of the two drugs were exactly additive). Cbliss values were then subtracted from the experimentally observed fractional inhibition values to give an 'excess over Bliss' value which were plotted as heat maps±SD."}, "parental HCT116 cells": {"system": "parental HCT116 cells", "assay": "Combination proliferation assay (Loewe/Bliss)", "format": "cell-based", "settings": "Homo sapiens, HCT-116, 2.5% serum, mean of n=4 separate combinations, read-out: IC50 (single agent, derived from combination assay plates)", "method": "Cells were seeded into triplicate 96-well plates at the densities indicated in Table 11 in McCoy's 5A media containing 2.5% FBS and allowed to adhere overnight prior to addition of test compound or vehicle control. Combinations were tested using either a 10×8 or for the follow-up HCT116 study a 3×1 dose matrix.\nTest compounds were incubated with the cells for 72 h at 37° C., 5% CO2 in a humidified atmosphere. CellTiter-Glo® reagent (Promega, Madison, Wis.) was added according to manufacturer's instructions and luminescence detected using the BMG FLUOstar plate reader (BMG Labtech, Ortenberg, Germany). The average media only background value was deducted and the data analysed.\nFor the 10×8 combination assays the combination interactions across the dose matrix were determined by the Loewe Additivity and Bliss independence models using Chalice™ Combination Analysis Software (Horizon Discovery Group, Cambridge, Mass.) as outlined in the user manual (available at chalice.horizondiscovery.com/chalice-portal/documentation/analyzer/home.jsp). Synergy is determined by comparing the experimentally observed level of inhibition at each combination point with the value expected for additivity, which is derived from the single-agent responses along the edges of the matrix. […]"}, "HCT116 PIK3CA (+/−)": {"system": "HCT116 PIK3CA (+/−)", "assay": "Single agent proliferation assay (CellTiter-Glo, 72 h)", "format": "cell-based, human", "settings": "Homo sapiens, HCT-116, 72 h", "method": "Cells were seeded in 96-well plates at the densities and media conditions indicated in Table 11 in McCoy's 5A containing either 10% FBS or 1% charcoal-stripped FBS (CS-FBS), and allowed to adhere overnight prior to addition of compound or vehicle control. […] The final DMSO concentration was constant at 0.1%. Test compounds were incubated with the cells for 72 h at 37° C., 5% CO2 in a humidified atmosphere. CellTiter-Glo® reagent (Promega, Madison, Wis.) was added according to manufacturer's instructions and luminescence detected using the BMG FLUOstar plate reader (BMG Labtech, Ortenberg, Germany). The average media only background value was deducted and the data analysed using a 4-parameter logistic equation in GraphPad Prism (GraphPad Software, La Jolla, Calif.)."}, "HCT116 Parental": {"system": "HCT116 Parental", "assay": "Single agent proliferation assay (CellTiter-Glo, 72 h)", "format": "cell-based, human", "settings": "Homo sapiens, HCT-116, 72 h", "method": "Cells were seeded in 96-well plates at the densities and media conditions indicated in Table 11 in McCoy's 5A containing either 10% FBS or 1% charcoal-stripped FBS (CS-FBS), and allowed to adhere overnight prior to addition of compound or vehicle control. Compounds were prepared from DMSO stocks to give the desired final concentrations. The final DMSO concentration was constant at 0.1%. Test compounds were incubated with the cells for 72 h at 37° C., 5% CO2 in a humidified atmosphere. CellTiter-Glo® reagent (Promega, Madison, Wis.) was added according to manufacturer's instructions and luminescence detected using the BMG FLUOstar plate reader (BMG Labtech, Ortenberg, Germany). The average media only background value was deducted and the data analysed using a 4-parameter logistic equation in GraphPad Prism (GraphPad Software, La Jolla, Calif.)."}, "[2]": {"system": "MAPK signaling in A375 cells", "assay": "Western blot of MAPK signaling, cell cycle and apoptosis markers", "format": "cell-based, human", "method": "For Western blot studies, HCT116 cells (5×10^6) were seeded into 10 cm dishes in McCoy's 5A plus 10% FBS. A375 cells (2.5×10^6) were seeded into 10 cm dishes in DMEM plus 10% FBS. Cells were allowed to adhere overnight prior to addition of the indicated amount of test compound (BVD-523) or vehicle control. Cells were treated for either 4 or 24 hours before isolation of whole-cell protein lysates, as specified below. Cells were harvested by trypsinisation, pelleted and snap frozen. Lysates were prepared with RIPA (Radio-Immunoprecipitation Assay) buffer, clarified by centrifugation and quantitated by bicinchoninic acid assay (BCA) assay. 20-50 μg of protein was resolved by SDS-PAGE electrophoresis, blotted onto PVDF membrane and probed using the antibodies detailed in Table 9 (for the 4-hour treatment) and Table 10 (for the 24-hour treatment) below."}, "[3]": {"settings": "A375, prolonged (24 hours) treatment"}}, "note": "Entries after “also recorded” stand apart in the source; their conditions may differ."}
{"smiles": "CC(C)Nc1cc(-c2c[nH]c(C(=O)N[C@H](CO)c3cccc(Cl)c3)c2)c(Cl)cn1", "note": "[BVD-523]", "values": [{"measurement": "Single agent sensitivity relative to the parental line", "setting": "[1]; HCT116 line lacking the PIK3CA mutation vs parental", "value": "more sensitive"}, {"measurement": "IC50", "setting": "[1]; Homo sapiens, HCT-116, HCT116 PIK3CA (+/−), mean of n=4 separate combinations, read-out: IC50 (single agent, derived from combination assay plates)", "value": 40, "unit": "nM"}, {"measurement": "IC50", "setting": "parental HCT116 cells", "value": 130, "unit": "nM"}, {"measurement": "IC50", "setting": "HCT116 PIK3CA (+/−); 1% CS-FBS", "value": 10, "unit": "nM"}, {"measurement": "IC50", "setting": "HCT116 PIK3CA (+/−); 10% FBS", "value": 120, "unit": "nM"}, {"measurement": "IC50", "setting": "HCT116 Parental; 1% CS-FBS", "value": 20, "unit": "nM"}, {"measurement": "IC50", "setting": "HCT116 Parental; 10% FBS", "value": 170, "unit": "nM"}, {"measurement": "cyclin-D1 protein level", "setting": "[2]; 24 hours (prolonged) treatment", "value": "greatly reduced"}, {"measurement": "MAPK feedback phosphatase DUSP6 protein level", "setting": "[2]; 24 hours (prolonged) treatment, BRAF mutant cells", "value": "greatly reduced"}, {"measurement": "Apoptosis / PARP cleavage", "setting": "[2]; [3]", "value": "PARP protein cleavage and increased apoptosis were not noted; also recorded: increased apoptosis was not observed"}, {"measurement": "Bim-EL level", "setting": "[2]; [3]", "value": "increased"}, {"measurement": "Phosphorylation of ERK-dependent residues (T359/S363) in RSK 1 and 2", "setting": "[2]; A375 BRAF mutant cell line, 4 hours, micromolar concentrations", "value": "reduced"}, {"measurement": "Concentrations required to induce changes in substrate phosphorylation and effector targets of ERK kinases", "setting": "[2]; RAF and RAS mutant cancer cells in-vitro, acute and prolonged treatment", "value": "low micromolar range"}, {"measurement": "Cellular ERK enzyme activity", "setting": "[2]; acute or prolonged treatment", "value": "fully inhibited"}]}
